{"source": "patent US20210169807A1", "about": "“PHARMACEUTICAL COMPOSITION COMPRISING AN ATYPICAL ANTIPSYCHOTIC AGENT AND METHOD FOR THE PREPARATION THEREOF” (priority 2018, published 2021)", "origin": "cited, not measured here", "note": "Like-named read-outs stand apart in the source and are kept apart here."}
{"smiles": "Cc1nc2n(c(=O)c1CCN1CCC(c3noc4cc(F)ccc34)CC1)CCCC2O", "note": "(stereo not drawn) [Paliperidone, 3-[2-[4-(6-fluoro-1,2-benzisoxazol-3-yl)-1-piperidinyl]ethyl]-6,7,8,9-tetrahydro-9-hydroxy-2-methyl-4H-pyrido[1,2-a]pyrimidin-4-one]", "values": [{"measurement": "solubility", "setting": "in 0.1N HCl", "value": "slightly soluble"}, {"measurement": "solubility", "setting": "in dichloromethane", "value": "sparingly soluble"}, {"measurement": "solubility", "setting": "in water", "value": "insoluble"}]}
